According to publication PMC6474902, “Examination of novel 4-aminoquinoline derivatives designed and synthesized by a hybrid pharmacophore approach to enhance their anticancer activities” (Scientific Reports, 2019):
“And” between values parts separate entries of the source, which are not always exact repeats. Equal values may be shown once. “Also recorded” adds a separate entry of the source.

Columns and labels:
Assay type in all cases: cell-based, human
MCF10A = experiment: LysoTracker Red staining of lysosomal volume, non-cancer cells; details: 5 μM, 48 h
Experimental: Since the structure of compound 13 contains the main scaffold of CQ, we examined whether cells treated with compound 13 also results an increase in the lysosomal volume.
LysoTracker Red sDND-99 staining was carried out as recommended by the manufacturer (Molecular Probes, Eugene, OR). Briefly, cells grown on a cover slip were incubated in 50 nM LysoTracker Red DND-99 in serum-free RPMI-1640 medium for 30 min and then rinsed once with serum-free medium. The cells were washed three times with ice-cold medium, incubated in fresh medium for 45 min at 37 °C, and then washed once with fresh medium. Subsequently, the cells were examined by fluorescence microscopy using two filters (for green and red images) sequentially. Merging the two color images was done using Northern Eclipse software.
Sham treated Compound 13 (5 μ M), 48 h
(VR23) in non- cancer MCF10A, in contrast to cancer cells (MCF7, HeLa). […]

[1] = system: Cdk1, Cdc25C, Wee1 in HeLa S3 cells; experiment: Western blot of G2-M-G1 regulators after nocodazole release; details: 10 µM
Experimental: To gain a better understanding about the molecular mechanism of compound 13 on antigrowth/cell-killing, HeLa S3 cells synchronized at G1/S by double thymidine treatment (DT) (Fig. 4b) were released into complete medium for 6 h, at which time most cells are at late S-G2/M phase (Fig. 4c). The cells were then maintained for additional 6 h in the absence (Fig. 4d) or presence of 10 μM compound 13 (Fig. 4e). More than 62% of cells progressed into G1 of the next cell cycle in the sham control (Fig. 4d). […] Since the level of securin is low, cell cycle is likely arrested prior to the chromatin separation stage in the presence of compound 13.
Figure 5 Compound 13-treated cells are arrested at prometa-metaphase through the inactivation of Cdk1. HeLa S3 cells were synchronized at G2/M phase by incubating in 50 ng/ml nocodazole (noco) for 18 h. The cells were then released into complete medium at time 0 h in the absence (Sham) or presence of 10 µM compound 13. Samples were then taken at the indicated times post-nocodazole. […] (b) Cdk1 may be inactivated by the combination of a high level of Wee1 kinase and inactivation of Cdc25C. The relative intensity of band signals are quantified by densitometry and presented the results in Supplementary Fig. S3.
Western blot and densitometry were carried out as we described previously[29],[30].

HeLa S3 cells = experiment: Mitotic spindle/centrosome morphology by confocal microscopy; details: 5 μM, 6 h after nocodazole synchronization
Text: To gain further insight into the cellular mechanism involved in the cell cycle arrest, we examined cell morphology in the context of mitotic progress. […] Many of these cells are apparently arrested at the spindle checkpoint stage. Even those cells undergo cell division (probably after prolonged arrest) often segregated with uneven cell sizes (arrows in Fig. 6a).
Figure 6 Compound 13 causes the formation of multiple spindle poles and uneven segregation. (a) HeLa S3 cells were synchronized at G2/M by nocodazole, followed by incubation for 6 h in drug-free medium in the absence (Sham control) or presence of 5 μM of compound 13. Note the presence of uneven cell sizes (arrows) which were likely generated as a result of nondisjuctional chromosome segregation during mitosis. […] In contrast, the untreated control sample contains very few cells with abnormal spindles.
All immunocytochemistry experiments were visualized by confocal microscopy using a Zeiss 510 Meta laser scanning microscope (Carl Zeiss) equipped with a 63× objective lens. Three lasers were utilized for excitation with the following band pass filter settings used for detection: Argon 488 nm (band pass 505–530), HeNe 543 nm (long pass 560) and 633 nm (long pass 650). All images were captured and analyzed using LSM 510 software included with the microscope (LSM Image Examiner, Carl Zeiss).

Q: With O=[N+]([O-])c1ccc(S(=O)(=O)N2CCN(c3ccnc4cc(Cl)ccc34)CC2)c([N+](=O)[O-])c1 [Compound 13, 7-Chloro-4-(4-(2,4-dinitrophenylsulfonyl)piperazin-1-yl)quinoline] as the compound, how does the lysosomal volume (MCF10A) read?
A: does not increase; also recorded: did not show the same degree of increase in lysosomal volume

Q: And the “Cdc25C phosphatase activity status” value ([1]; 2–3 h post-nocodazole)?
A: almost completely inactive

Q: And the “phosphorylation of Thr161 and Tyr15 on Cdk1” value ([1]; 2–3 h post-nocodazole)?
A: highly phosphorylated

Q: What about the Wee1 activity status ([1]; 3 h post-nocodazole) of the same compound?
A: very active

Q: What about the “mitotic cells with multiple centrosomes / multiple spindle phenotypes” value (HeLa S3 cells) of the same compound?
A: 44% and 44.4%
